From the NIST ThermoML archive (doi:10.1021/je300843n)

Details: Liquid, Ebulliometric method (Recirculating still)

C [methane]
Details | vapor or sublimation pressure [kPa]
126.01 K | 286.85
127.99 K | 324.94
130.02 K | 367.76
132.01 K | 413.65
133.98 K | 463.11
135.99 K | 517.9
137.97 K | 576.38
140.01 K | 641.51
